The source of these data is patent US8084621B2, “3-Pyrrolo[b]cyclohexylene-2-dihydroindolinone derivatives and uses thereof” (Jiangsu Simcere Pharmaceutical R&D Co. Ltd., priority 2006, dated 2011).

Holding throughout (type): cell-based
The subject of assay [1] is Human Leukemia Line (K562). As to the kind of experiment: Tumor cell proliferation assay (MTT), K562. The conditions noted are these: concentration of 10^−5 mol/L, preliminary screening, 72 hours, read-out: Inhibition rate % K562. The source says: (§1) The assay used generally is the blue tetrazolium bromide (MTT) method. […] The amount of formazan can be detected by the microplate reader through the absorption value at 570 nm. The amount of formazan product generated is proportional to the number of living cells in the sample, so the OD value may reflect the number of living cells and the ability of a test drug to inhibit or kill cells. The MTT assay may be used in determining the ability of different compounds of the present invention to inhibit one or more cancer cells proliferation. Similar assays can be designed along the same lines for any cancer cell using techniques well known in the art.
(§2) The assay used generally is the blue tetrazolium bromide (MTT) method. […] Intracellular purple formazan salt crystals can be solved in DMSO and the absorption value at 570 nm is detected by the microplate reader, then the number of living cells can be detected indirectly. So MTT assay may be used to determine the ability of a compound of the present invention to inhibit cell proliferation. Similar assays can be designed along the same lines for any cancer cell using techniques well known in the art.
2.2.3 Human Leukemia Line (K562)
(§3) The cells of the 2.2.1, 2.2.2, 2.2.3, 2.2.4, 2.2.5 cultured with RPMI 1640 containing 12% calf serum in the condition of 37° C., 5% CO2.
(§4) 2.3.1 Cell seeding: Trypsinize the cell by 0.05% trypsin-EDTA and add RPMI 1640 medium (DMEM or 5A) containing 12% calf serum. Count the number, then dilute to 1.67×10^4/ml. Add 180 ul/well to the 96 well plate (3000 cells/well).
(§5) 2.3.2 Culture: cells are incubated for 24 hours at 37° C. under 5% CO2.
(§6) 2.3.3 Preliminary screening: The compounds are firstly diluted to 0.1 mol/L with DMSO, and then diluted to three concentrations of 10^−5 mol/L, 10^−6 mol/L and 10^−7 mol/L. Add 20 ul test compounds to the 96 well plate and incubate for 72 hours. Each group has three parallel wells and all experiments repeat three times. Each inhibition ratio is calculated, then an average value of three times is taken as the measured value. 2.3.4 Staining 2.3.4.1 Attached cell: add 20 ul/well MTT to the 96-well plates; incubate for 4 hours in the incubator. Pour out the culture medium in the well and add 100 ul/well DMSO. Shake the plate for 5 min. 2.3.4.2 Suspension cell: add 20 ul/well MTT to the 96-well plates; incubate for 4 hours in the incubator. Add 50 ul/well 20% SDS and incubate for overnight in the incubator. 2.3.5 Reading the plates: read the absorbance A570-A630 with the Infinite M200 microtiter plate reader. Calculate the inhibition ratio of the test compounds. 2.3.6 Secondary screening: the compounds whose inhibition ratio is greater than 50% at the concentrations of 10^−5 mol/L in the preliminary screening will be picked out for Secondary screening. Dilute these compounds to ten concentrations: 10^−5 mol/L, 0.5×10^−5 mol/L, 10^−6 mol/L, 0.8×10^−6 mol/L, 0.6×10^−6 mol/L, 0.4×10^−6 mol/L, 0.2×10^−6 mol/L, 10^−7 mol/L, 0.8×10^−7 mol/L and 0.4×10^−7 mol/L. Add 20 ul test compound solution to the 96 well plate and incubate for 48 hours. Each group has three parallel wells and all experiments repeat for three times. Read the plates and calculate the inhibition ratio according to the preliminary screening method. 2.3.7 Calculate the Inhibition Ratio of Cell Proliferation and the IC50
(§7) According to the inhibition ratio of cell proliferation at the different concentrations of the compound, inhibition ratio of 50% of the test compound is calculated through the logarithm of the concentration of the compound with the Logit [I] linear regression, and an average value of three times is taken as the measured value of a sample.

Assay [2] deals with Human Hepatocellular Carcinoma Cell Line (HEPG2). As to the kind of experiment: Tumor cell proliferation assay (MTT), HEPG2. The settings on record: concentration of 10^−5 mol/L, preliminary screening, 72 hours, read-out: Inhibition rate % HEPG2.
From the text: as §1, §2
2.2.8 Human Hepatocellular Carcinoma Cell Line (HEPG2);
The cells of 2.2.8, 2.2.9 cultured in DMEM/High glucose medium containing 12% calf serum in the condition of 37° C., 5% CO2.
as §4, §5, §6, §7

For assay [3], the system named is Human Non-Small Cell Lung Cancer Cell Line (A549). Description: Tumor cell proliferation assay (MTT), A549. The conditions noted are these: concentration of 10^−5 mol/L, preliminary screening, 72 hours, read-out: Inhibition rate % A549.
From the text: as §1, §2
2.2.2 Human Non-Small Cell Lung Cancer Cell Line (A549)
as §3, §4, §5, §6, §7

Assay [4] relates to Human Pancreatic Carcinoma Cell Line (BXPC-3). Description: Tumor cell proliferation assay (MTT), BXPC-3. The settings on record: concentration of 10^−5 mol/L, preliminary screening, 72 hours, read-out: Inhibition rate % BXPC-3.
From the text: as §1, §2
2.2.6 Human Pancreatic Carcinoma Cell Line (BXPC-3);
(§8) The cells of 2.2.6, 2.2.7 cultured in RPMI 1640 medium containing 12% fetal bovine serum in the condition of 37° C., 5% CO2.
as §4, §5
as §6, with “2.3.6 Secondary screening: the compounds whose inhibition ratio is greater than 50% at the concentrations of 10^−5 mol/L in the preliminary screening will be picked out for Secondary screening.” left out
as §7

The subject of assay [5] is Human Gastric Cancer Cell Line (BGC). Description: Tumor cell proliferation assay (MTT), BGC. The settings on record: concentration of 10^−5 mol/L, preliminary screening, 72 hours, read-out: Inhibition rate % BGC.
From the text: as §1, §2
2.2.1 Human Gastric Cancer Cell Line (BGC)
as §3, §4, §5, §6, §7

Assay [6] has as its system Human Bladder Cancer Cell Line (T24). Description: Tumor cell proliferation assay (MTT), T24. The conditions noted are these: concentration of 10^−5 mol/L, preliminary screening, 72 hours, read-out: Inhibition rate % T24.
From the text: as §1, §2
2.2.7 Human Bladder Cancer Cell Line (T24);
as §8, §4, §5, §6, §7

Assay [7] has as its system Human Colon Cancer Cell Line (HT-29). As to the kind of experiment: Tumor cell proliferation assay (MTT), HT29. The conditions noted are these: concentration of 10^−5 mol/L, preliminary screening, 72 hours, read-out: Inhibition rate % HT29.
From the text: as §1, §2
2.2.11 Human Colon Cancer Cell Line (HT-29);
(§9) The cells of 2.2.11, 2.2.12, 2.2.13 were cultured in MC COYS 5-A medium containing 12% fetal bovine serum in the condition of 37° C., 5% CO2.
as §4, §5
as §6, with “2.3.6 Secondary screening: the compounds whose inhibition ratio is greater than 50% at the concentrations of 10^−5 mol/L in the preliminary screening will be picked out for Secondary screening.” left out
as §7

For assay [8], the system named is Human Pancreatic Carcinoma Cells (PANC-1). As to the kind of experiment: Tumor cell proliferation assay (MTT), PANC-1. The settings on record: concentration of 10^−5 mol/L, preliminary screening, 72 hours, read-out: Inhibition rate % PANC-1.
From the text: as §1, §2
2.2.4 Human Pancreatic Carcinoma Cells (PANC-1)
as §3, §4, §5, §6, §7

For assay [9], the system named is Human Colon Cancer Cell Line (HCT 116). Description: Tumor cell proliferation assay (MTT), HCT116. The conditions noted are these: concentration of 10^−5 mol/L, preliminary screening, 72 hours, read-out: Inhibition rate % HCT116.
From the text: as §1, §2
2.2.12 Human Colon Cancer Cell Line (HCT 116);
as §9, §4, §5, §6, §7

Assay [10] concerns Human Colon Cancer Cell Line (CACO-2). As to the kind of experiment: Tumor cell proliferation assay (MTT), CACO-2. The settings on record: concentration of 10^−5 mol/L, preliminary screening, 72 hours, read-out: Inhibition rate % CACO-2.
From the text: as §1, §2
2.2.10 Human Colon Cancer Cell Line (CACO-2)
The cell of 2.2.10 cultured in DMEM/High glucose medium containing 12% fetal bovine serum in the condition of 37° C., 5% CO2.
as §4, §5, §6, §7

Take `CCOC(=O)c1c(C)[nH]c2c1CCC/C2=C1/C(=O)Nc2ccc(F)cc21` [I-1, ethyl 2-methyl-7-[1,2-dihydro-5-fluoro-2-oxo-3H-indol-(Z)-3-ylidene]-4,5,6,7-tetrahydro-1H-indole-3-carboxylate]: in assay [1], the inhibition at 10 µM was determined as 28.6%.

Take `Cc1[nH]c2c(c1C(=O)N1CCOCC1)CCC/C2=C1/C(=O)Nc2ccccc21` [I-12, 2-methyl-3-(morpholine-4-carbonyl)-7-[1,2-dihydro-2-oxo-3H-indol-(Z)-3-ylidene]-4,5,6,7-tetrahydro-1H-indole]: the inhibition at 10 µM turned out to be 12.8% in assay [2]; 1.1% in assay [3]; 29.5% in assay [4]; 31.9% in assay [5]; 14.6% in assay [6]; 78.4% in assay [7]. The inhibition at 10 µM in assay [8] was 23.3%; in assay [9], 36.5%; in assay [10], 11.7%.

In the case of `Cc1[nH]c2c(c1C(=O)N1CCN(C)CC1)CCC/C2=C1/C(=O)Nc2ccccc21` [I-13, 2-methyl-3-(4-methylpiperazine-1-carbonyl)-7-[1,2-dihydro-2-oxo-3H-indol-(Z)-3-ylidene]-4,5,6,7-tetrahydro-1H-indole], the inhibition at 10 µM was 46% in assay [2]; 3.82% in assay [3]; 42.4% in [4]; 11.1% in assay [5]; 9.04% in [6]; 63.2% in assay [7]. The inhibition at 10 µM amounted to 0% in assay [8] and 9.79% in [10].
